Reference: patent publication US10172814B2, “Substituted pyridyl-cycloalkyl-carboxylic acids, compositions containing them and medical uses thereof” (BAYER PHARMA AKTIENGESELLSCHAFT, priority 2014, dated 2019)

Biological target: human PTGES (Homo sapiens (Human), UniProt O14684)
Experiment: Human PTGES biochemical enzyme inhibition assay (conversion of PGH2 to PGE2, TR-FRET)
Conditions: Enzymatic conversion of PGH2 to PGE2; read-out: Human PTGES IC50
In short: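 FLAG-tagged human PTGES from Hi-5 insect cells preincubated 15–20 min with compound in pH 7.2 phosphate buffer with 2.5 mM reduced glutathione; reaction started with 8 nM PGH2 final, stopped with SnCl2/KF.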

Chain of human PTGES (O14684 whole entry): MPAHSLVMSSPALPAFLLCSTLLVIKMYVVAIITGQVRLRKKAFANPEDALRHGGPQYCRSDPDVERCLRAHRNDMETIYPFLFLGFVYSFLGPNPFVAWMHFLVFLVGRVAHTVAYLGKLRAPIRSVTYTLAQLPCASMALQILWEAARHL

| Structure (SMILES) | IC50 [nM] |
| --- | --- |
| Cc1c(NC(=O)C(c2ccc(-c3cncc(C(F)(F)F)c3)c(F)c2)C2CCCC2)cccc1C(C)CC(=O)O (single isomer, unassigned; stereoisomer 4) [Example 119, 3-{3-[(Cyclopentyl{3-fluoro-4-[5-(trifluoromethyl)pyridin-3-yl]phenyl}acetyl)amino]-2-methylphenyl}butanoic acid, Stereoisomer 4] | 1060 |
| Cc1ncc(-c2ccc(C(C(=O)Nc3cccc(C(C)CC(=O)O)c3C)C3CCCC3)cc2F)cc1Cl (single isomer, unassigned; stereoisomer 4) [Example 124, 3-[3-({[4-(5-Chloro-6-methylpyridin-3-yl)-3-fluorophenyl](cyclopentyl)acetyl}amino)-2-methylphenyl]butanoic acid, Stereoisomer 4] | 5.06 |
| Cc1c(NC(=O)C(c2ccc(-c3cncc(Cl)c3)c(F)c2)C2CCCC2)cccc1C(C)CC(=O)O (single isomer, unassigned; stereoisomer 4) [Example 129, 3-[3-({[4-(5-Chloropyridin-3-yl)-3-fluorophenyl](cyclopentyl)acetyl}amino)-2-methylphenyl]butanoic acid, Stereoisomer 4] | 5.6 |
| Cc1c(NC(=O)C(c2ccc(-c3cncc(Cl)c3)cc2)C2CCC2)cccc1C(C)CC(=O)O (single isomer, unassigned; stereoisomer 4) [Example 139] | 107 |
| Cc1c(NC(=O)C(c2ccc(-c3cncc(Cl)c3)c(F)c2)C2CCC2)cccc1C(C)CC(=O)O (single isomer, unassigned; stereoisomer 4) [Example 153, 3-[3-({[4-(5-Chloropyridin-3-yl)-3-fluorophenyl](cyclobutyl)acetyl}amino)-2-methylphenyl]butanoic acid, Stereoisomer 4] | 11.7 |
| Cc1cc(-c2ccc(C(C(=O)Nc3cccc(CC(C)C(=O)O)c3C)C3CCCC3)cc2)cnc1C (stereo not shown) [Example 78, (2R/2S)-3-[3-({(2R/2S)-2-Cyclopentyl-2-[4-(5,6-dimethylpyridin-3-yl)phenyl]acetyl}amino)-2-methylphenyl]-2-methylpropanoic acid] | 118 |
| Cc1ccc(-c2ccc(C(C(=O)Nc3cccc(CC(C)C(=O)O)c3C)C3CCCC3)cc2)cn1 (stereo not shown) [Example 79, (2R/2S)-3-[3-({(2R/2S)-2-Cyclopentyl-2-[4-(6-methylpyridin-3-yl)phenyl]acetyl}amino)-2-methylphenyl]-2-methylpropanoic acid] | 433 |
| Cc1c(CC(C)C(=O)O)cccc1NC(=O)C(c1ccc(-c2cncc(OC(F)F)c2)cc1)C1CCCC1 (stereo not shown) [Example 80, (2R/2S)-3-(3-{[(2R/2S)-2-Cyclopentyl-2-{4-[5-(difluoromethoxy)pyridin-3-yl]phenyl}acetyl]amino}-2-methylphenyl)-2-methylpropanoic acid] | 88.5 |
| Cc1cncc(-c2ccc(C(C(=O)Nc3cccc(CC(C)C(=O)O)c3C)C3CCCC3)cc2)c1 (stereo not shown) [Example 81, (2R/2S)-3-[3-({(2R/2S)-2-Cyclopentyl-2-[4-(5-methylpyridin-3-yl)phenyl]acetyl}amino)-2-methylphenyl]-2-methylpropanoic acid] | 172 |
| Cc1ncc(-c2ccc(C(C(=O)Nc3cccc(CC(C)C(=O)O)c3C)C3CCCC3)cc2)cc1F (stereo not shown) [Example 82, (2R/2S)-3-[3-({(2R/2S)-2-Cyclopentyl-2-[4-(5-fluoro-6-methylpyridin-3-yl)phenyl]acetyl}amino)-2-methylphenyl]-2-methylpropanoic acid] | 90.6 |
| Cc1c(NC(=O)C(c2ccc(-c3cncc(Cl)c3)c(F)c2)C2CCC2)cccc1C(C)CC(=O)O (stereo not shown) [Example 149] | 52.1 |
| Cc1ncc(-c2ccc(C(C(=O)Nc3cccc(C4CC4C(=O)O)c3C)C3CCCC3)cc2)cc1Cl (stereo not shown) [Example 154, 2-[3-({2-[4-(5-chloro-6-methylpyridin-3-yl)phenyl]-2-cyclopentylacetyl}amino)-2-methylphenyl]cyclopropanecarboxylic acid] | 42.8 |
| CCOc1cncc(-c2ccc(C(C(=O)Nc3cccc(C4CC4C(=O)O)c3C)C3CCCC3)cc2)c1 (stereo not shown) [Example 155, 2-[3-({2-cyclopentyl-2-[4-(5-ethoxypyridin-3-yl)phenyl]acetyl}amino)-2-methylphenyl]cyclopropanecarboxylic acid] | 158 |
| Cc1c(NC(=O)C(c2ccc(-c3cncc(C(F)(F)F)c3)cc2)C2CCCC2)cccc1C1CC1C(=O)O (stereo not shown) [Example 156, 2-(3-{[2-cyclopentyl-2-{4-[5-(trifluoromethyl)pyridin-3-yl]phenyl}acetyl]amino}-2-methylphenyl)cyclopropanecarboxylic acid] | 32.9 |
| Cc1ncc(-c2ccc([C@H](C(=O)Nc3ccc(F)c(CCC(=O)O)c3C)C3CCCC3)cc2)cc1Cl [Example 184, 3-[3-({(2R)-2-[4-(5-chloro-6-methylpyridin-3-yl)phenyl]-2-cyclopentylacetyl}amino)-6-fluoro-2-methylphenyl]propanoic acid] | 23.7 |
| Cc1ncc(-c2ccc([C@H](C(=O)Nc3cccc(N(C)CC(=O)O)c3C)C3CCCC3)cc2)cc1Cl [Example 187, N-[3-({(2R)-2-[4-(5-chloro-6-methylpyridin-3-yl)phenyl]-2-cyclopentylacetyl}amino)-2-methylphenyl]-N-methylglycine] | 23.9 |
| Cc1c(CCC(=O)O)cccc1NC(=O)[C@@H](c1ccc(-c2cncc(OC(C)C)c2)cc1)C1CCCC1 [Example 190, 3-(3-{[(2R)-2-cyclopentyl-2-{4-[5-(propan-2-yloxy)pyridin-3-yl]phenyl}acetyl]amino}-2-methylphenyl)propanoic acid] | 36.1 |
| Cc1c(CCC(=O)O)cccc1NC(=O)[C@@H](c1ccc(-c2cncc(CC(F)(F)F)c2)cc1)C1CCCC1 [Example 191, 3-(3-{[(2R)-2-cyclopentyl-2-{4-[5-(2,2,2-trifluoroethyl)pyridin-3-yl]phenyl}acetyl]amino}-2-methylphenyl)propanoic acid] | 60.1 |
| Cc1ncc(-c2ccc([C@H](C(=O)Nc3cccc(CCC(=O)O)c3C)C3CCCC3)cc2)cc1C(F)(F)F [Example 192, 3-(3-{[(2R)-2-cyclopentyl-2-{4-[6-methyl-5-(trifluoromethyl)pyridin-3-yl]phenyl}acetyl]amino}-2-methylphenyl)propanoic acid] | 13.5 |
| Cc1c(NC(=O)[C@@H](c2ccc(-c3cncc(Cl)c3)cc2)C2CCCC2)cccc1C(O)CC(=O)O (stereo partly drawn) [Example 193, 3-[3-({(2R)-2-[4-(5-chloropyridin-3-yl)phenyl]-2-cyclopentylacetyl}amino)-2-methylphenyl]-3-hydroxypropanoic acid] | 232 |
| COc1c(CCC(=O)O)cccc1NC(=O)C(c1ccc(-c2cncc(C(F)(F)F)c2)cc1)C1CCCC1 (stereo not shown) [Example 213, 3-{3-[(cyclopentyl{4-[5-(trifluoromethyl)pyridin-3-yl]phenyl}acetyl)amino]-2-methoxyphenyl}propanoic acid] | 328 |
| O=C(O)CCc1cccc(NC(=O)[C@@H](c2ccc(-c3cncc(C(F)(F)F)c3)cc2)C2CCCC2)c1C(F)(F)F [Example 215, 3-[3-{[(2R)-2-cyclopentyl-2-{4-[5-(trifluoromethyl)pyridin-3-yl]phenyl}acetyl]amino}-2-(trifluoromethyl)phenyl]propanoic acid] | 258 |
